In one data set the test system is mites. Kind of data set: Mite killing efficacy test with an in vitro model. In a few lines:
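Groups of 17–26 live mites were exposed 5 min at normal temperature to drug in 3% DMSO/97% water (target final 30 µM), then air-dried ~1 h. Dead/total mites were counted at 1–24 h after dosing at room temperature and high humidity. Mortality was scored ≥90% "+++", 50–90% "++", <50% "+".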

Another data set concerns Diamondback moth. The data set is described as follows: Killing efficacy test against agricultural pests: diamondback moth test (leaf dip). It counts as in vivo. To be noted: Plutella xylostella, foliar, 72 h, read-out: Corrected Mortality Rate (%). As to the method: (§1) Solution preparation: 2 mg of a test compound was weighed and dissolved in 200 µL of acetone, and the sample was diluted with an aqueous solution containing 0.1% Tween 80 to a required concentration to obtain a test solution. 1. Diamondback moth test: The test sample was prepared into solutions with final concentrations of 0.0156 mg/L, 0.125 mg/L, and 1 mg/L. Fresh and clean rapeseed leaves were cut into small pieces of 3 cm × 3 cm. The leaf pieces were immersed in the solutions with different concentrations for 10s, taken out, and air-dried naturally. The treated leaf pieces were placed into Petri dishes lined with moistened filter paper. 20 third-instar larvae of the diamondback moth were introduced into each Petri dish. The Petri dishes were placed in a constant-temperature room, and mortality rates were checked after 72 h. 2. Aphid test: The test sample was prepared into solutions with final concentrations of 2 mg/L, 10 mg/L, and 50 mg/L. Fresh cotton leaves of uniform size were immersed in the solutions with different concentrations for 10s, air-dried, and placed backside up on culture plates. 100 wingless adult aphids were introduced into each culture plate. The culture plates were sealed with paper strips and placed in a constant-temperature room. Mortality rates were checked after 72 h. 3. Mite test: The test sample was prepared into solutions with final concentrations of 0.02 mg/L, 0.2 mg/L, and 2 mg/L. Filter paper treated with the test solutions was placed in Petri dishes, and about 30 mites were placed at the center of each Petri dish. 0.05 g of mite feed was added to the center of each Petri dish after 30 min. The Petri dishes were placed in a constant-temperature room, and mortality rates were checked after 72 h. 4. Borer test: The test sample was prepared into solutions with final concentrations of 0.125 mg/L, 0.5 mg/L, and 2 mg/L. Fresh leaves were cut, immersed in the solutions with different concentrations for 10s, taken out, and air-dried. The treated leaves were placed in Petri dishes, and 30 borer larvae were introduced into each Petri dish. The Petri dishes were placed in a constant-temperature room, and mortality rates were checked after 72 h.

Another data set relates to Aphid. The data set is described as follows: Killing efficacy test against agricultural pests: aphid test (leaf dip). The data set is classed as in vivo, aphids. Particulars: after 72 h. The procedure:
as §1

The next data set deals with Mite. The data set is described as follows: Killing efficacy test against agricultural pests: mite test (treated filter paper). To be noted: after 72 h. The data set is classed as in vivo, mites. As to the method: as §1
The next data set deals with Borer. Kind of data set: Killing efficacy test against agricultural pests: borer test (leaf dip). To be noted: after 72 h. The data set is classed as in vivo. As to the method: as §1
Data set [1] in a line: In vivo pharmacokinetic evaluation in mice. More on the design: species or system ICR mice. To be noted: ICR, mouse, plasma; for AUC: read-out: AUC^1-24 h. The procedure: 1. Drug preparation: 5% DMSO + 10% macrogol 15 hydroxystearate (BASF) + 85% saline (where drug solutions have a final concentration of 1.2 mg/mL for the IV group and 3 mg/mL for the PO group). 2. Experimental animals: Each group included three mice (ICR mice, SPF grade). 3. Administration method: The body weight was measured before administration, and the dose was calculated according to the body weight. The mice were administered through intravenous injection or oral gavage. 4. Blood collection: After administration, blood samples were collected in 0.083 h, 0.25 h, 0.5 h, 1 h, 2 h, 4 h, 6 h, 8 h, and 24 h. The blood samples were collected via the cheek. Each sample included about 0.05 mL of blood anticoagulated with EDTA-2K. The blood samples were placed on wet ice after collection. 5. Sample treatment: The blood samples were placed on ice after collection and centrifuged within 1 h to obtain plasma (centrifugation conditions: 6000 g, 3 min, 2-8°C). Plasma samples were stored in a -80°C refrigerator before analysis. 6. Data processing: Pharmacokinetic parameters were calculated using Phoenix WinNonlin 8.2.0 based on plasma concentration data at different time points.

Molecules are shown by their SMILES. Where two headings read alike, the source gives them in different places. A value given as a limit tells only on which side of the number the result lay.

As for `Cc1cc(C2=NO[C@@](c3cc(Cl)cc(Cl)c3)(C(F)(F)F)C2)ccc1C(=O)NCC(=O)NC1(C(F)(F)F)CC1` [Example 011, (S)-4-(5-(3,5-dichlorophenyl)-5-(trifluoromethyl)-4,5-dihydroisoxazol-3-yl)-2-methyl-N-(2-oxo-2-((1-(trifluoromethyl)cyclopropyl)amino)ethyl)benzamide], the mortality at 30 µM is more than 90% in the data set with mites (4 h, read-out: Mite Mortality Rate 4 h) and more than 90% with mites (24 h, read-out: Mite Mortality Rate 24 h). In the data set on Diamondback moth, the mortality at 0.0156 µg/mL worked out at 0%. The mortality at 0.125 µg/mL in the data set on Diamondback moth came to 100%. In addition, the mortality at 1 µg/mL in the data set with Diamondback moth came out at 100%. The “Corrected Mortality Rate (%)” value amounted to 60% with Aphid (2 mg/L); 100% with Aphid (10 mg/L); 100% in the data set with Aphid (50 mg/L); 34% in the data set on Mite (0.02 mg/L); 86% with Mite (0.2 mg/L); 100% in the data set with Mite (2 mg/L). In addition, the “Corrected Mortality Rate (%)” value in the data set with Borer (0.125 mg/L) was 29%; in the data set on Borer (0.5 mg/L), 93%; in the data set with Borer (2 mg/L) it was 100%. Also, the clearance in data set [1] (IV (6 mg/kg)) is 1.18 mL/min/kg. For the same molecule, the half-life was 1200 min in data set [1] (IV (6 mg/kg)) and 1670 min in data set [1] (PO (30 mg/kg)). Also, the figures for the AUC in data set [1] (IV (6 mg/kg)) and in data set [1] (PO (30 mg/kg)) were 48.9 µg·h/mL and 231 µg·h/mL, respectively. Moreover, the C0 in data set [1] (IV (6 mg/kg), read-out: C0) came out at 6800 ng/mL. Further, the Cmax in data set [1] (PO (30 mg/kg), read-out: Cmax) came out at 15900 ng/mL. In addition, in data set [1] (PO (30 mg/kg), read-out: Tmax), the time of peak concentration (Tmax) worked out at 2.67 h. For the same molecule, in data set [1] (in vivo, IV (6 mg/kg), read-out: Vss), the Vd amounted to 1.96 L/kg. This molecule registered a bioavailability in data set [1] (PO (30 mg/kg) vs IV (6 mg/kg)) of 94.6%.

As usually defined, the mortality is the percentage killed. As a reminder, the clearance is the rate of elimination divided by the concentration. Low readings indicate inefficient removal, high ones efficient removal. As a reminder, the half-life is the time needed for the level to fall by half in the phase considered. Read a high half-life as slow decline. The AUC is concentration integrated over time. By Cmax is commonly meant the highest concentration seen after dosing. Broadly, the Tmax is the time from dosing to the highest level. As usually defined, the bioavailability is the share of a dose that reaches the circulation, judged against a reference dose that is usually intravenous. High values mean much systemic uptake, low ones little systemic uptake.

The values are drawn from patent EP4741380A1, “ISOXAZOLINE COMPOUND AND USE” (priority 2024, dated 2025).
